Data on 21 compounds can be found in ChEMBL document CHEMBL3217469, “Redesigning the designer drug ecstasy: non-psychoactive MDMA analogues exhibiting Burkitt's lymphoma cytotoxicity” (Medchemcomm, 2010).

Each structure is given as a SMILES string.

The nature of series [1]: Cytotoxicity against human L3055 cells assessed as reduction in [3H]thymidine incorporation after 24 hrs by propidium iodide staining-based assay. The series is classed as functional, cell-based. (In general: Incorporation of labelled thymidine or its analogues reports DNA synthesis.)
The test system of another series is SH-SY5Y. The experiment in a line: Neurotoxicity against human SH-SY5Y cells at 1 to 600 uM after 24 hrs by Alamar Blue assay. The series is classed as toxicity, cell-based.
A short description of series [2]: Ratio of MDMA IC50 to compound IC50 for human L3055 cells. The series is classed as functional.
The test system of series [3] is Rattus norvegicus. The experiment in a line: Induction of psychotic activity in Wistar rat assessed as reduction in prepulse inhibition of acoustic startle reflex at 4.4 to 88 umol/kg. To be noted: in vivo. The series is classed as organism-based.
Series [4] deals with T1, 5-hydroxytryptamine receptor 1A (Rattus norvegicus, UniProt P19327).
T1 sequence (P19327 whole entry): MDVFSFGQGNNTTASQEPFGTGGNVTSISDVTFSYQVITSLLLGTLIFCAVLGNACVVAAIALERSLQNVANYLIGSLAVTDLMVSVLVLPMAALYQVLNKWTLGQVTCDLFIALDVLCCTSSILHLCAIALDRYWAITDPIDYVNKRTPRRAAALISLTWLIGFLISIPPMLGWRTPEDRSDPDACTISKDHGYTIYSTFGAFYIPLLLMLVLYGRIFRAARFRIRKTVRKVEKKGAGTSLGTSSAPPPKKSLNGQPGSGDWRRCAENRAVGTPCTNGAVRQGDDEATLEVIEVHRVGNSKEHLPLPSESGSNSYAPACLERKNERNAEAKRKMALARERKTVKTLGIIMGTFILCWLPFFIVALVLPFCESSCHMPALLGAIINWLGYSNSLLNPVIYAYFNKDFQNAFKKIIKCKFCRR
The experiment in a line: Displacement of [3H]WAY100635 from 5-HT1A receptor in Sprague-Dawley rat cerebral cortex after 60 mins by scintillation counting analysis. The series is classed as tissue-based. A general note: Displacement assays read how much labelled ligand stays bound in the presence of the test substance.

Another series addresses Serotonin 1B/1D receptor (Rattus norvegicus, UniProt P28564+P28565). The experiment in a line: Displacement of [3H]GR125743 from 5-HT1B/1D receptor in Sprague-Dawley rat whole brain after 60 mins by scintillation counting analysis.
Series [5] has as its target T2, 5-hydroxytryptamine receptor 2C (Rattus norvegicus, UniProt P08909).
T2 sequence (P08909 whole entry): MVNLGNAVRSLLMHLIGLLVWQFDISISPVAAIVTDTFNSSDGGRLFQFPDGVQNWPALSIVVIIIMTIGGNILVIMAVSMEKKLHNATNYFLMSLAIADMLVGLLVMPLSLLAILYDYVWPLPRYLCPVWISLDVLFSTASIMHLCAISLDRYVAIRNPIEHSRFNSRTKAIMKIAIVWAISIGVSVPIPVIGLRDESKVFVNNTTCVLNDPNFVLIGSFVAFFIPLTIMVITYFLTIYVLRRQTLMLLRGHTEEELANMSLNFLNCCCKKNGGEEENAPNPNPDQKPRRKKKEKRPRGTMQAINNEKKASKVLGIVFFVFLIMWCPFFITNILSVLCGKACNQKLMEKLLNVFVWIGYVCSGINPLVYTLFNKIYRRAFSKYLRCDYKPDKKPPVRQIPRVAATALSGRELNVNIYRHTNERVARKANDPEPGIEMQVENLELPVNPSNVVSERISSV
Kind of series: Displacement of [3H]mesulergine from 5-HT2C receptor in Sprague-Dawley rat whole brain after 60 mins by scintillation counting analysis.

Series [6] deals with 5-hydroxytryptamine receptor 2A (Rattus norvegicus, UniProt P14842). Kind of series: Displacement of [3H]-ketanserin from 5-HT2A receptor in Sprague-Dawley rat cerebral cortex after 45 mins by scintillation counting analysis. The series is classed as tissue-based.
Chain of 5-hydroxytryptamine receptor 2A (P14842 whole entry): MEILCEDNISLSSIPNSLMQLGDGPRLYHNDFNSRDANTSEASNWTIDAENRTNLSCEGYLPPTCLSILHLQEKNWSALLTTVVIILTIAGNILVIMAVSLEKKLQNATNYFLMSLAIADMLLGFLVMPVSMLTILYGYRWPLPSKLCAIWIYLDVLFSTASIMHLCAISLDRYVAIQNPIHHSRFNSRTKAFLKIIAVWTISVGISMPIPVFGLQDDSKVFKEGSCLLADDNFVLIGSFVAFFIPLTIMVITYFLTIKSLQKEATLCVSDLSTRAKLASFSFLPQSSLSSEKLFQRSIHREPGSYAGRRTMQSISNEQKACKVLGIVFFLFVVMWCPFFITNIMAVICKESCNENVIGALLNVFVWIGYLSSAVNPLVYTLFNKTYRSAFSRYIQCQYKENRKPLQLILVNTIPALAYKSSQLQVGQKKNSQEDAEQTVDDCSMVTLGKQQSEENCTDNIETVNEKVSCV
A further series deals with Transporter (Rattus norvegicus, UniProt Q63380). Kind of series: Displacement of [3H]nisoxetine from NET in Sprague-Dawley rat cerebellum after 60 mins by scintillation counting analysis.
Chain of Transporter (Q63380 whole entry): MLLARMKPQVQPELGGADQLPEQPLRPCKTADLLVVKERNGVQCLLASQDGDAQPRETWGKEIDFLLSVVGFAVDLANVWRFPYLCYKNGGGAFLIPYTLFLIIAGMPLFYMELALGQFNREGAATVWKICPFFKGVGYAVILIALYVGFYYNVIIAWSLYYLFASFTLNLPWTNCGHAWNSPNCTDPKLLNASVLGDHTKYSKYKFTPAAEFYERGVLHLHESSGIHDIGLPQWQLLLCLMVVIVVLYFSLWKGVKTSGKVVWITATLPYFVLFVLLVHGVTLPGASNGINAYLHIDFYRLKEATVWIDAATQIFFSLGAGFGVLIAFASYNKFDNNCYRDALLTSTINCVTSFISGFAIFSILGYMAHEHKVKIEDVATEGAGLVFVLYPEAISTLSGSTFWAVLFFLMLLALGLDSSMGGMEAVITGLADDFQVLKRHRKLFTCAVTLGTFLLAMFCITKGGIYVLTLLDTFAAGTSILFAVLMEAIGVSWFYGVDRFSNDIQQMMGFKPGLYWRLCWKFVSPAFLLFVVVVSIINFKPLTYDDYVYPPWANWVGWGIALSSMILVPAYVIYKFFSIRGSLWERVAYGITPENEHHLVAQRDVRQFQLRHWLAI
The target in series [7] is Sodium-dependent serotonin transporter (Rattus norvegicus, UniProt P31652). The experiment in a line: Displacement of [3H]citalopram from SERT in Sprague-Dawley rat whole brain after 60 mins by scintillation counting analysis.
Chain of Sodium-dependent serotonin transporter (P31652 whole entry): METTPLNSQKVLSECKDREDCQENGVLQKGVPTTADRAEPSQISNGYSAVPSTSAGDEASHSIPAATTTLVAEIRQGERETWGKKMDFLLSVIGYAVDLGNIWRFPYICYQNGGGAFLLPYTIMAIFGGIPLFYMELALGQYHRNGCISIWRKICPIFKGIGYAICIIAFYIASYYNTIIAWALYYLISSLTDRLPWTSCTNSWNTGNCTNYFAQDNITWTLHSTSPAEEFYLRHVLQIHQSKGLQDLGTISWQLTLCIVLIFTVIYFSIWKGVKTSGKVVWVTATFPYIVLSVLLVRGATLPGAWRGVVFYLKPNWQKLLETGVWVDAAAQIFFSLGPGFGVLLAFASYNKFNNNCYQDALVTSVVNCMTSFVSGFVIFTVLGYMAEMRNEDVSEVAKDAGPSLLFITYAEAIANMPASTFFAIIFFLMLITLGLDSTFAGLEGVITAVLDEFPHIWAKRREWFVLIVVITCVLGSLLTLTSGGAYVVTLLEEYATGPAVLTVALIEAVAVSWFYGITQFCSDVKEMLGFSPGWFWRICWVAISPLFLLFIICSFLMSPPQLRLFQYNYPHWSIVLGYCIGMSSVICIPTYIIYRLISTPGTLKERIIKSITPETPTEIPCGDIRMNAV
The target of series [8] is Sodium-dependent dopamine transporter (Rattus norvegicus, UniProt P23977). Kind of series: Displacement of [3H]GBR12935 from DAT in Sprague-Dawley rat striatum after 45 mins by scintillation counting analysis.
Chain of Sodium-dependent dopamine transporter (P23977 whole entry): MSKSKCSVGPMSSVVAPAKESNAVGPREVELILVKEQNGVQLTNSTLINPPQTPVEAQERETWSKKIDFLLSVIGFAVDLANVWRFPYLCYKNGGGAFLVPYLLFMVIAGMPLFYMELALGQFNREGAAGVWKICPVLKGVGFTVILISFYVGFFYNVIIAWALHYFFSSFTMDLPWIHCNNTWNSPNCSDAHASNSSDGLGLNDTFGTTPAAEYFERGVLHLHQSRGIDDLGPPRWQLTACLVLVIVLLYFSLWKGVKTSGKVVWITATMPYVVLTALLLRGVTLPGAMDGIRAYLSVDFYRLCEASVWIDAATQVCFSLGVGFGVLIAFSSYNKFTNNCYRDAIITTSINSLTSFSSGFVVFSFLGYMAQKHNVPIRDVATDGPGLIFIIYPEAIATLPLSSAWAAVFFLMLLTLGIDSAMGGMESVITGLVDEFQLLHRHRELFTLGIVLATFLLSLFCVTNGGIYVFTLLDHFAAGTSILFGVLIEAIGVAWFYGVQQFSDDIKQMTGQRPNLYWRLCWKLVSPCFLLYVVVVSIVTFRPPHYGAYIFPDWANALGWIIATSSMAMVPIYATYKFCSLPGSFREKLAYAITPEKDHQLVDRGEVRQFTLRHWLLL
The species entered for series [9] is Rattus norvegicus. The experiment in a line: Induction of psychotic activity in Wistar rat assessed as reduction in prepulse inhibition of acoustic startle reflex. The series is classed as organism-based. To be noted: in vivo.

As to `CNC(Cc1ccc2c(c1)OCO2)Cc1ccc2c(c1)OCO2`, in [1], the IC50 was determined as 36.7 µM.
For the compound `CNC(Cc1ccc2c(c1)OCO2)c1ccccc1C` (racemic), the IC50 in series [1] amounted to 65 µM.
For `CNC(Cc1ccc2c(c1)OCO2)c1cccc(C)c1` (racemic), in series [1], the concentration for half-maximal inhibition (IC50) was found to be 51 µM.
As to `CNC(Cc1ccc2c(c1)OCO2)c1ccc(C)cc1` (racemic), the half-maximal inhibitory concentration (IC50) in series [1] came out at 42 µM.
Still for that read-out and setting: next, `CNC(Cc1ccc2c(c1)OCO2)c1ccccc1OC` (racemic): 92 µM.
Still for that read-out and setting: next, `CNC(Cc1ccc2c(c1)OCO2)c1cccc(OC)c1` (racemic): 80 µM; `CNC(Cc1ccc2c(c1)OCO2)c1ccc(OC)cc1` (racemic): 69 µM; `CNC(Cc1ccc2c(c1)OCO2)c1ccc(F)cc1` (racemic): 63 µM.
Same read-out and setting: for `CNC(Cc1ccc2c(c1)OCO2)C1CCCCC1` (racemic) the value was 81 µM; for `CNC(Cc1ccccc1)Cc1ccc2c(c1)OCO2` (racemic), 69 µM.
On to `CNC(Cc1ccc2c(c1)OCO2)c1cccc2ccccc12.Cl` (racemic), for which the Activity result with SH-SY5Y is reported as “Non-toxic”. Moreover, the “Ratio IC50” value in series [2] came out at 100. Further, the IC50 in series [1] was 12.6 µM.
For `CNC(Cc1ccc2c(c1)OCO2)c1ccc2ccccc2c1.Cl` (racemic), in that order: “Non-toxic”, 100 and 6.6 µM.
As to `CNC(Cc1ccc2c(c1)OCO2)c1ccc(-c2ccccc2)cc1` (racemic), the IC50 in series [1] was 6 µM.
Still for that read-out and setting: next, `CCC(Cc1ccc2c(c1)OCO2)NC` (racemic): 707 µM; `CCCC(Cc1ccc2c(c1)OCO2)NC` (racemic): 379 µM; `CNC(Cc1ccc2c(c1)OCO2)C1CC1` (racemic): 801 µM.
As for `CNC(Cc1ccc2c(c1)OCO2)C(C)C` (racemic), in [1], the IC50 was 651 µM.
Same read-out and setting: next, `CNC(Cc1ccc2c(c1)OCO2)C(C)(C)C` (racemic): 447 µM.
Take `CNC(Cc1ccc2c(c1)OCO2)c1ccccc1.Cl` (racemic): the Activity entry with Rattus norvegicus [3] is given as “Non-toxic”; in the series with SH-SY5Y it was “Toxic”. In addition, the Ki in [4] was > 10 µM; on Serotonin 1B/1D receptor, > 10 µM; in series [5], > 10 µM; in series [6], 1.23 µM; on Transporter it was 0.7 µM; in series [7] it was 1.32 µM. The Ki in series [8] is > 10 µM. Besides, in [2], the “Ratio IC50” value worked out at 7. Further, the 50% inhibitory concentration (IC50) in series [1] was 76 µM.
Take `CNC(C)Cc1ccc2c(c1)OCO2.Cl` (centres undefined) [MIDOMAFETAMINE HYDROCHLORIDE]: the Ki is > 10 µM in series [4]; > 10 µM on Serotonin 1B/1D receptor; > 10 µM in series [5]; > 10 µM in series [6]; > 10 µM on Transporter; 0.21 µM in [7]. Further, in series [8], the Ki is > 10 µM. The results for the Activity result in the series on SH-SY5Y and in the series filed under Rattus norvegicus [9] were “Toxic” and “Dose-dependent effect”, respectively. The IC50 in [1] turned out to be 507 µM.
For the compound `COc1ccc(CC(C)N)cc1` (centres undefined) [PARA-METHOXYAMPHETAMINE], the Activity result in the series filed under Rattus norvegicus [9] was “Dose-dependent effect”.

As usually defined, the IC50 is the concentration at which inhibition is half-maximal. For orientation: Ki means a dissociation constant, usually derived from enzyme kinetics or from competition with a known ligand. Low values mean higher affinity, high ones lower affinity.
